Assay results as given in PubChem BioAssay AID256 (DTP/NCI, 2004).
“And” between values parts separate entries of the source, which are not always exact repeats. Equal values may be shown once. Toxic doses and inconclusive results are not listed.

Test system: CD2F1 mice, L1210 leukemia ip, survival T/C
Assay: NCI In Vivo Anticancer Drug Screen. Data for tumor model L1210 Leukemia (intraperitoneal) in CD2F1 (CDF1) mice
Conditions: higher = longer survival
Procedure, shortened: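 Each value reflects a quotient of treated over vehicle control outcomes in mice with a transplanted tumor.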

[1] = endpoint: mean survival time, dose: 75.0 mg/kg/injection, schedule: Q01DX001 (ip), vehicle: saline
[2] = endpoint: mean survival time, dose: 150.0 mg/kg/injection, schedule: Q01DX001 (ip), vehicle: saline
[3] = endpoint: mean survival time, dose: 100.0 mg/kg/injection, schedule: Q04DX003 (ip), vehicle: saline with Tween-80
[4] = endpoint: mean survival time, dose: 200.0 mg/kg/injection, schedule: Q04DX003 (ip), vehicle: saline with Tween-80
[5] = endpoint: mean survival time, dose: 400.0 mg/kg/injection, schedule: Q04DX003 (ip), vehicle: saline with Tween-80
[6] = endpoint: mean survival time, dose: 50.0 mg/kg/injection, schedule: Q01DX009 (ip), vehicle: saline with Tween-80
[7] = endpoint: mean survival time, dose: 100.0 mg/kg/injection, schedule: Q01DX009 (ip), vehicle: saline with Tween-80
[8] = endpoint: mean survival time, dose: 200.0 mg/kg/injection, schedule: Q01DX009 (ip), vehicle: saline with Tween-80

c1ccc(C(c2ccccc2)[P+](c2ccccc2)(c2ccccc2)c2ccccc2)cc1
T/C (endpoint: mean survival time, dose: 375.0 micrograms/kg/injection, schedule: Q01DX001 (ip), vehicle: gum acacia): 92 % of control | T/C (endpoint: mean survival time, dose: 375.0 micrograms/kg/injection, schedule: Q01DX009 (ip), vehicle: gum acacia): 106 % of control | T/C (endpoint: mean survival time, dose: 375.0 micrograms/kg/injection, schedule: Q04DX003 (ip), vehicle: gum acacia): 95 % of control | T/C (endpoint: mean survival time, dose: 750.0 micrograms/kg/injection, schedule: Q01DX001 (ip), vehicle: gum acacia): 103 % of control | T/C (endpoint: mean survival time, dose: 750.0 micrograms/kg/injection, schedule: Q01DX009 (ip), vehicle: gum acacia): 101 % of control | T/C (endpoint: mean survival time, dose: 750.0 micrograms/kg/injection, schedule: Q04DX003 (ip), vehicle: gum acacia): 101 % of control | T/C (endpoint: mean survival time, dose: 1500.0 micrograms/kg/injection, schedule: Q01DX001 (ip), vehicle: gum acacia): 101 % of control | T/C (endpoint: mean survival time, dose: 1500.0 micrograms/kg/injection, schedule: Q01DX009 (ip), vehicle: gum acacia): 108 % of control | T/C (endpoint: mean survival time, dose: 1500.0 micrograms/kg/injection, schedule: Q04DX003 (ip), vehicle: gum acacia): 106 % of control | T/C (endpoint: mean survival time, dose: 3000.0 micrograms/kg/injection, schedule: Q01DX001 (ip), vehicle: gum acacia): 98 % of control | T/C (endpoint: mean survival time, dose: 3000.0 micrograms/kg/injection, schedule: Q01DX009 (ip), vehicle: gum acacia): 112 % of control | T/C (endpoint: mean survival time, dose: 3000.0 micrograms/kg/injection, schedule: Q04DX003 (ip), vehicle: gum acacia): 108 % of control | T/C (endpoint: mean survival time, dose: 6000.0 micrograms/kg/injection, schedule: Q01DX001 (ip), vehicle: gum acacia): 112 % of control | T/C (endpoint: mean survival time, dose: 6000.0 micrograms/kg/injection, schedule: Q01DX009 (ip), vehicle: gum acacia): 92 % of control | T/C (endpoint: mean survival time, dose: 6000.0 micrograms/kg/injection, schedule: Q04DX003 (ip), vehicle: gum acacia): 114 % of control

CN(CCN1CCCCC1)C(=O)C(O)(c1ccccc1)c1ccccc1
T/C [1]: 104 % of control | T/C [2]: 98 % of control

NC(=O)N/N=C/c1ccc([N+](=O)[O-])s1
T/C [3]: 97 % of control | T/C [4]: 99 % of control | T/C [5]: 106 % of control

CN(Cc1cnc2nc(N)nc(N)c2n1)c1ccc(C(=O)NC(CCC(=O)O)C(=O)O)cc1.[W] (centres undefined)
T/C (endpoint: median survival time, dose: 11.0 mg/kg/injection, schedule: Q01DX009 (ip), vehicle: water): 178 % of control | T/C (endpoint: median survival time, dose: 12.0 mg/kg/injection, schedule: Q01DX009 (ip), vehicle: water): 202 % of control | T/C (endpoint: median survival time, dose: 12.0 mg/kg/injection, schedule: Q01DX009 (other), vehicle: water): 202 % of control | T/C (endpoint: median survival time, dose: 14.0 mg/kg/injection, schedule: Q01DX009 (ip), vehicle: water): 190 % of control | T/C (endpoint: median survival time, dose: 14.0 mg/kg/injection, schedule: Q## X009 (ip), vehicle: water): 190 % of control | T/C (endpoint: median survival time, dose: 21.0 mg/kg/injection, schedule: Q01DX009 (ip), vehicle: water): 178 % of control | T/C (endpoint: median survival time, dose: 22.0 mg/kg/injection, schedule: Q01DX009 (ip), vehicle: water): 190 % of control | T/C (endpoint: median survival time, dose: 22.0 mg/kg/injection, schedule: Q01DX009 (other), vehicle: water): 190 % of control | T/C (endpoint: median survival time, dose: 41.0 mg/kg/injection, schedule: Q01DX009 (ip), vehicle: water): 166 % of control | T/C (endpoint: median survival time, dose: 42.0 mg/kg/injection, schedule: Q01DX009 (ip), vehicle: water): 166 % of control | T/C (endpoint: median survival time, dose: 42.0 mg/kg/injection, schedule: Q01DX009 (other), vehicle: water): 166 % of control

CC[PH+](CC)CC[S-].CC[PH+](CC)CC[S-].[Au+].[Au+]
T/C (endpoint: mean survival time, dose: 2.5 mg/kg/injection, schedule: Q01DX009 (ip), vehicle: Klucel (hydroxypropylcellulose) (HPC)): 102 % of control and 107 % of control | T/C (endpoint: mean survival time, dose: 5.0 mg/kg/injection, schedule: Q01DX009 (ip), vehicle: Klucel (hydroxypropylcellulose) (HPC)): 95 % of control and 106 % of control | T/C (endpoint: mean survival time, dose: 10.0 mg/kg/injection, schedule: Q01DX009 (ip), vehicle: Klucel (hydroxypropylcellulose) (HPC)): 92 % of control and 109 % of control | T/C (endpoint: mean survival time, dose: 20.0 mg/kg/injection, schedule: Q01DX009 (ip), vehicle: Klucel (hydroxypropylcellulose) (HPC)): 97 % of control and 109 % of control | T/C (endpoint: mean survival time, dose: 40.0 mg/kg/injection, schedule: Q01DX009 (ip), vehicle: Klucel (hydroxypropylcellulose) (HPC)): 89 % of control | T/C (endpoint: mean survival time, dose: 80.0 mg/kg/injection, schedule: Q01DX009 (ip), vehicle: Klucel (hydroxypropylcellulose) (HPC)): 101 % of control

Cc1nc(SCc2ccc(Cl)cc2)[nH]c(=O)c1CCO
T/C [3]: 92 % of control | T/C [4]: 96 % of control | T/C [5]: 94 % of control

COc1ccc(/C=C(\C)[N+](=O)[O-])cc1OC
T/C (endpoint: mean survival time, dose: 12.5 mg/kg/injection, schedule: Q01DX009 (ip), vehicle: water): 105 % of control | T/C (endpoint: mean survival time, dose: 25.0 mg/kg/injection, schedule: Q01DX009 (ip), vehicle: water): 93 % of control | T/C (endpoint: mean survival time, dose: 50.0 mg/kg/injection, schedule: Q01DX009 (ip), vehicle: water): 93 % of control

COC(=O)c1ccccc1-c1ccccc1C(=O)O
T/C (endpoint: mean survival time, dose: 44.0 mg/kg/injection, schedule: Q01DX001 (ip), vehicle: other): 97 % of control | T/C (endpoint: mean survival time, dose: 66.0 mg/kg/injection, schedule: Q01DX001 (ip), vehicle: other): 97 % of control | T/C (endpoint: mean survival time, dose: 100.0 mg/kg/injection, schedule: Q01DX001 (ip), vehicle: other): 103 % of control | T/C (endpoint: mean survival time, dose: 150.0 mg/kg/injection, schedule: Q01DX001 (ip), vehicle: other): 100 % of control

CN(C)c1ccc(/C=N\NC(=O)CNC(=O)Nc2ccc(F)cc2)c(Cl)c1
T/C [6]: 100 % of control | T/C [7]: 88 % of control | T/C [8]: 92 % of control

[N-]=[N+]=[N-]
T/C (endpoint: median survival time, dose: 0.75 mg/kg/injection, schedule: Q01DX009 (ip), vehicle: saline): 101 % of control | T/C (endpoint: median survival time, dose: 1.5 mg/kg/injection, schedule: Q01DX009 (ip), vehicle: saline): 101 % of control | T/C (endpoint: median survival time, dose: 3.0 mg/kg/injection, schedule: Q01DX009 (ip), vehicle: saline): 93 % of control | T/C (endpoint: median survival time, dose: 6.0 mg/kg/injection, schedule: Q01DX009 (ip), vehicle: saline): 103 % of control | T/C (endpoint: median survival time, dose: 12.0 mg/kg/injection, schedule: Q01DX009 (ip), vehicle: saline): 92 % of control

C#CC(C)(O)CCCCCC (centres undefined)
T/C [7]: 113 % of control | T/C [8]: 100 % of control

COc1ccc(/C=C(/C#N)C(N)=O)cc1Br
T/C (endpoint: mean survival time, dose: 50.0 mg/kg/injection, schedule: Q01DX009 (ip), vehicle: acetone): 96 % of control | T/C (endpoint: mean survival time, dose: 100.0 mg/kg/injection, schedule: Q01DX009 (ip), vehicle: acetone): 98 % of control | T/C (endpoint: mean survival time, dose: 200.0 mg/kg/injection, schedule: Q01DX009 (ip), vehicle: acetone): 93 % of control

O=[N+]([O-])c1ccc(Cl)c(S(=O)O)c1
T/C (endpoint: mean survival time, dose: 100.0 mg/kg/injection, schedule: Q01DX009 (ip), vehicle: saline): 95 % of control | T/C (endpoint: mean survival time, dose: 100.0 mg/kg/injection, schedule: Q04DX003 (ip), vehicle: saline): 110 % of control | T/C (endpoint: mean survival time, dose: 200.0 mg/kg/injection, schedule: Q01DX009 (ip), vehicle: saline): 106 % of control | T/C (endpoint: mean survival time, dose: 200.0 mg/kg/injection, schedule: Q04DX003 (ip), vehicle: saline): 102 % of control | T/C (endpoint: mean survival time, dose: 400.0 mg/kg/injection, schedule: Q01DX009 (ip), vehicle: saline): 103 % of control | T/C (endpoint: mean survival time, dose: 400.0 mg/kg/injection, schedule: Q04DX003 (ip), vehicle: saline): 106 % of control

Cc1ccc(S(=O)(=O)OC2CC3CC2C2C4C=CC(C4)C32)cc1 (centres undefined)
T/C [6]: 101 % of control | T/C [7]: 93 % of control | T/C [8]: 101 % of control

Cc1ccc(C2(C#N)CCCC2)cc1
T/C (endpoint: mean survival time, dose: 100.0 mg/kg/injection, schedule: Q01DX009 (ip), vehicle: saline sonified): 97 % of control | T/C [3]: 97 % of control | T/C (endpoint: mean survival time, dose: 200.0 mg/kg/injection, schedule: Q01DX009 (ip), vehicle: saline sonified): 97 % of control | T/C [4]: 97 % of control | T/C (endpoint: mean survival time, dose: 400.0 mg/kg/injection, schedule: Q01DX009 (ip), vehicle: saline sonified): 88 % of control | T/C [5]: 97 % of control

CCOC(=O)c1c(C)c2c(n1C)CCCC2=O
T/C (endpoint: mean survival time, dose: 100.0 mg/kg/injection, schedule: Q04DX002 (ip), vehicle: saline with Tween-80): 93 % of control | T/C (endpoint: mean survival time, dose: 200.0 mg/kg/injection, schedule: Q04DX002 (ip), vehicle: saline with Tween-80): 89 % of control | T/C (endpoint: mean survival time, dose: 400.0 mg/kg/injection, schedule: Q04DX002 (ip), vehicle: saline with Tween-80): 86 % of control

Clc1ccc(C(=C(c2ccc(Cl)cc2)c2ccc(Cl)cc2)c2ccc(Cl)cc2)cc1
T/C [1]: 100 % of control | T/C [2]: 95 % of control | T/C (endpoint: mean survival time, dose: 300.0 mg/kg/injection, schedule: Q01DX001 (ip), vehicle: saline): 93 % of control

N#CSc1ccc2c(ccn2C2OCC(O)C(O)C2O)c1 (centres undefined)
T/C (endpoint: mean survival time, dose: 12.5 mg/kg/injection, schedule: Q01DX005 (ip), vehicle: other): 93 % of control | T/C (endpoint: mean survival time, dose: 25.0 mg/kg/injection, schedule: Q01DX005 (ip), vehicle: other): 93 % of control | T/C (endpoint: mean survival time, dose: 50.0 mg/kg/injection, schedule: Q01DX005 (ip), vehicle: other): 101 % of control
